In assay [1] the test system is mice. Description: Mice Training in Morris Water Maze (Scopolamine). The format is in vivo. The conditions noted are these: unitary introduction of active ingredient. Here is the method: Mice Training in Morris Water Maze. A round pool which was filled with water at 20-22° C. was used. A round ceramic platform of 14 cm height was placed in the pool. Animals's behavior was registered with automated computer videosystem in combination with software package of movement analysis Any-maze (Stoelting Co., US). Before testing mice suitable for training were selected. That was done by placing the platform 1 cm above the water level and putting an animal on the platform for 20 seconds. Then the mouse was sunk into the water on the opposite side of the pool, allowed to find the platform and climbed it within 60 seconds, where it was left for additional 20 seconds. After that the mouse was repeatedly immersed into water on the opposite side of the pool and allowed to look for platform. If it failed in finding the platform within 60 seconds the experimentator helped it to find the platform and climb it. If the mice could not find the platform itself in two consecutive attempts it was excluded from experiment.
During the next two days the platform was placed 0.5 centimeter lower the water level. Every day the mice were given four attempts for finding the platform within 60 seconds. The time interval between the attempts was 20 seconds, during which the mice stayed on the platform. Every day before the first attempt mouse was placed on the platform for 20 seconds. The time needed for finding and climbing the platform was registered. The animals were sunk in water in 3 different places on the side of the pool opposite to platform. On each day of two-day testing 35-40 minutes before the beginning of training the mice were injected intraintestinally with physiological solution, Scopolamine or Scopolamine in combination with investigated compound. At least 8 animals were used in each group.
On the third day the platform was removed and each animal was placed one time in the pool for a period of 60 seconds. The time each mouse spent in the area where the platform had been located during the previous days was registered. This time interval was regarded as a measure of effectiveness of training fulfilled during the previous two days. The testing was carried out during the day time in isolated laboratory using “white noise” at level of about 70 decibel above the human hearing threshold.

Assay [2] relates to male mice of BALB/c line. Description: Passive Avoidance of mice in the Shuttle Chamber, memory disturbed by Scopolamine. The format is in vivo. The note with it: Scopolamine 0.3 mg/kg. Here is the method:
A shuttle chamber (Ugo Basile, Italy) consisted of two sections was used. […] The sections were connected through a hole which could be overlapped by a vertical door. The floor was made of transverse metal bars on which DC current impulses could be fed. Experiments were carried out in aged male mice of BALB/c line weighing 20-24 grams.
Each group consisted of at least 8 animals. Animal was placed in light section, and latent period of the first entry into dark chamber was registered. Then the vertical door was closed and the animal was punished by 0.6 mA DC current for 3 seconds. After that it was taken back to its homecage. In 22-24 hours the same animal was placed again in light section of the shuttle chamber and latent period of its first entry into dark section, the total time of its stay in light section, and the number of entries into dark section, were registered. Each monitoring lasted for 5 minutes.
Testing was carried out during the day time in isolated laboratory using white noise at level of about 70 decibel above human hearing threshold.
Scopolamine causes the disturbance of training (memory loss) that results in […].

In assay [3] the target is T1, human H1 receptor (Homo sapiens, UniProt P35367).
T1 construct: expressed in transfected cells; host or cells: CHO-K1
T1 sequence (P35367 whole entry): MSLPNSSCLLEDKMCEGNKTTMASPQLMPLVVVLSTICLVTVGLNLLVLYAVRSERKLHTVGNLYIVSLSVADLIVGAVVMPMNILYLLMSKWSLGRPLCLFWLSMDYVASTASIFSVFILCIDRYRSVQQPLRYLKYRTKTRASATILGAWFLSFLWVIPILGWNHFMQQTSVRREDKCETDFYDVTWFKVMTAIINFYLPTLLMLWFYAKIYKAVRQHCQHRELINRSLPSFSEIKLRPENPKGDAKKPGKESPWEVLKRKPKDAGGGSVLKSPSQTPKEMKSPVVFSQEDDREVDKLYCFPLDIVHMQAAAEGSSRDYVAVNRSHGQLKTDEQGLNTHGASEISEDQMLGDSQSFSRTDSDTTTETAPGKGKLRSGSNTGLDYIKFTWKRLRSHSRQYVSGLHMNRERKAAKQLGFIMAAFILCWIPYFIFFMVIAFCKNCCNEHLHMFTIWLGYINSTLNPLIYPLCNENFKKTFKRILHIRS
Description: radioligand binding to histamine receptor H1 ([3H] Pyrilamine). The text has this:
Biochem Biophys Res Comm. 197(3): 1601-1608, 1993]. […] Biochem Biophys Res Comm. 197(3): 1601-1608, 1993].
Pyrilamine is used as positive control.

Assay [4] concerns the target T2, human D2S receptor (Homo sapiens, UniProt P14416).
T2 construct: expressed in transfected cells; host or cells: CHO
In words: radioligand binding to dopamine receptor D2S ([3H] Spiperone). From the text: 7-C. […] For this purpose sDNA of human D2S receptor is expressed in CHO cells, as described in [Hayes G, Biden T J, Selbie L A and Shine J, Structural subtypes of the dopamine D2 receptor are functionally distinct. […] Mol. Endocrinol. […] Mol. Endocrinol. […] Spiperone is used as positive control.

The target of assay [5] is T3, human D1 receptor (Homo sapiens, UniProt P21728).
T3 construct: expressed in transfected cells; host or cells: CHO
T3 sequence (P21728 whole entry): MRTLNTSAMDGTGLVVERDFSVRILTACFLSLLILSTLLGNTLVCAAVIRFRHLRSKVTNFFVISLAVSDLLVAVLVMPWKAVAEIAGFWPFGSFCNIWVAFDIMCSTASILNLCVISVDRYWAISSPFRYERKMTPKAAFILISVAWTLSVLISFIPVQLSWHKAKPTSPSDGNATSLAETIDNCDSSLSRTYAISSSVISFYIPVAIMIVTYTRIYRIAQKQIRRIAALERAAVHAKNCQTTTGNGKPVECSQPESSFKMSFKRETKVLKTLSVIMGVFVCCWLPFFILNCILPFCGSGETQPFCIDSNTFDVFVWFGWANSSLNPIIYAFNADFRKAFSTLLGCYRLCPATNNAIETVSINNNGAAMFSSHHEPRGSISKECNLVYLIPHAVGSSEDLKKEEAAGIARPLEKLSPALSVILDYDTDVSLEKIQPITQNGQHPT
In words: radioligand binding to dopamine receptor D1 ([3H] SCH-23390). From the text: For this purpose sDNA of human D1 receptor is expressed in CHO cells, as it was described in [Dearry A, Gingrich J A, Falardeau P, Fremeau R T Jr, Bates M D and Caron M G. Molecular cloning and expression of the gene for a human D1 dopamine receptor. Nature. […] Nature.

The target in assay [6] is T4, human α2A receptor (Homo sapiens, UniProt P08913).
T4 construct: expressed in transfected cells; host or cells: Sf9
T4 sequence (P08913 1-465): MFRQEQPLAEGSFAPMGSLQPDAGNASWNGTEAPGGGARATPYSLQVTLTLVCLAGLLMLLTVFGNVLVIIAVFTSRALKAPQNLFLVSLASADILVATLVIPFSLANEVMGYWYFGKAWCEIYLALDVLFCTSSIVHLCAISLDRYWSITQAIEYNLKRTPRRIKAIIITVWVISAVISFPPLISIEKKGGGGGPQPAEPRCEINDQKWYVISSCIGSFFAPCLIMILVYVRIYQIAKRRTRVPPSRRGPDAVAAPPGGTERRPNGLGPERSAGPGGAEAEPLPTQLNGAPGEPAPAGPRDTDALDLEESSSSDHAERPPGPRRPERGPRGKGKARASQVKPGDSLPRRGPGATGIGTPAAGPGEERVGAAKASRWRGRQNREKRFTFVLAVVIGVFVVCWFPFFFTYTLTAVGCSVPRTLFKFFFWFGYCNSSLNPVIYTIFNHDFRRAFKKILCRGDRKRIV
Description: radioligand binding to adrenergic receptor α2A ([3H] MK-912). From the text: J Pharmacol ExpTher. […] Yohimbine is used as positive control.

Assay [7] concerns the target T5, adrenergic receptor α1A (Rattus norvegicus, UniProt P43140).
T5 construct: membrane species from rat submaxillary glands (rat of Wistar breed) are prepared; from tissue; host or cells: rat (Wistar) submaxillary gland membranes
T5 sequence (P43140 1-466): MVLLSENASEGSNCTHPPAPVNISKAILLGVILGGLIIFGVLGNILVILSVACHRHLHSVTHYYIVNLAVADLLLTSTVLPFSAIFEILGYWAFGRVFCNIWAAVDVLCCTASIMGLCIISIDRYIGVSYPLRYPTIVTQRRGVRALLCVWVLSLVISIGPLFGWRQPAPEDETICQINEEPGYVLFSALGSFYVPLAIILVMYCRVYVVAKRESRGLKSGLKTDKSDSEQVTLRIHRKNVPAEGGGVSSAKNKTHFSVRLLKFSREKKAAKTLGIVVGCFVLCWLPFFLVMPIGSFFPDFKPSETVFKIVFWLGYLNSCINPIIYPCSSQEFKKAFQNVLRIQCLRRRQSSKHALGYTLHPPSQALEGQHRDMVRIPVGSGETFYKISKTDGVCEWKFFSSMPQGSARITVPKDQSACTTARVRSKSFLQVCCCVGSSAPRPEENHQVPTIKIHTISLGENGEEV
Description: radioligand binding to adrenergic receptor α1A ([3H] Prazosin). The procedure: Determination of investigated compounds' binding to α1A receptor was carried out according to the method described in [Michel A D, Loury D N and Whiting R l. Identification of a single α1A-adrenoceptor corresponding to the α1A-subtype in rat submaxillary gland. Br J. Pharmacol. 98:883-889, 1989]. […] Prazosin is used as positive control.

Assay [8] addresses T6, human α1D receptor (Homo sapiens, UniProt P25100).
T6 construct: expressed in transfected cells; host or cells: HEK-293
T6 sequence (P25100 1-572): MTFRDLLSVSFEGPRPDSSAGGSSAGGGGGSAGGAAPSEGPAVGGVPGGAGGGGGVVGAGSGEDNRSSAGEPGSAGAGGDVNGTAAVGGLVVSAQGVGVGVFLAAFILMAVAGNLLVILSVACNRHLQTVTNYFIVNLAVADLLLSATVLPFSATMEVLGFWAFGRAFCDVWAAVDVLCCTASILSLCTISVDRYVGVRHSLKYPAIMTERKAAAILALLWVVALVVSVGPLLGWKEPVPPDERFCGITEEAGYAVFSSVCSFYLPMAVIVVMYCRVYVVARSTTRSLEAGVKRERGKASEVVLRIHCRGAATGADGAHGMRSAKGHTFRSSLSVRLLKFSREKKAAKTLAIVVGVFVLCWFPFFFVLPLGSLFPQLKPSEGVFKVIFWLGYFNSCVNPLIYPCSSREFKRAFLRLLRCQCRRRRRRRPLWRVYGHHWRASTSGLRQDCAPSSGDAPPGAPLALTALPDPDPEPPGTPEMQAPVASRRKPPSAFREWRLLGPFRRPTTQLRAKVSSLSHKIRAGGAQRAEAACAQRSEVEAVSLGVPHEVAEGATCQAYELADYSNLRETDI
Description: radioligand binding to adrenergic receptor α1D ([3H] Prazosin). From the text: 6-C. […] For this purpose sDNA of human α1D receptor is expressed in HEK-293 cells, as it was described in [T L Theroux, T A Esbenshade, R D Peavy and K P Minneman. Coupling efficiencies of human alpha 1-adrenergic receptor subtypes: titration of receptor density and responsiveness with inducible and repressible expression vectors. Mol. Pharmacol.; 50: 1376-1387, 1996]. […] Prazosin is used as positive control.

Assay [9] relates to imidazoline receptor I2. In words: radioligand binding to imidazoline receptor I2 ([3H] Idazoxan). Further details: species or system rat. The conditions noted are these: 10 μM ligand. The procedure:
Determination of investigated compounds' binding to imidazoline I2 receptor is carried out according to the method described in [Brown C M, MacKinnon A C, McGrath J C, Spedding M and Kilpatrick A T, a2-Adrenoceptor subtypes and imidazoline-like binding in the rat brain. Br J. Pharmacol. 99:803-809, 1990]. […] Idazoxan is used as positive control.

Assay [10] deals with T7, adrenergic receptor α1B (Rattus norvegicus, UniProt P15823).
T7 construct: membrane species from rat liver (rat of Wistar breed) are prepared; from tissue; host or cells: rat (Wistar) liver membranes
T7 sequence (P15823 1-515): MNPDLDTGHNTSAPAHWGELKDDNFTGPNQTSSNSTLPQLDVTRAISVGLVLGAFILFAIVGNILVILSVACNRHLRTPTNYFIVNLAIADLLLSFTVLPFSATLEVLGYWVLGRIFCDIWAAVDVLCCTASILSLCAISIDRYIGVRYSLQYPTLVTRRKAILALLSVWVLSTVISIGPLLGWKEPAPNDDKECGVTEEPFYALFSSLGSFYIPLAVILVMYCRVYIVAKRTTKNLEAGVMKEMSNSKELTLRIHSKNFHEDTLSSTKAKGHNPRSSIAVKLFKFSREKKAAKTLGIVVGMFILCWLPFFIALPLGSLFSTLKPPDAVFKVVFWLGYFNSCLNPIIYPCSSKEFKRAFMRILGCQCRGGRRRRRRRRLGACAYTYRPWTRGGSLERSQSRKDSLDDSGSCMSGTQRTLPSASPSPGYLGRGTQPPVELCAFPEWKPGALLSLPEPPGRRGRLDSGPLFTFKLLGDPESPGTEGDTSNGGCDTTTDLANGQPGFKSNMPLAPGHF
In words: radioligand binding to adrenergic receptor α1B ([3H] Prazosin). From the text:
Species heterogeneity of hepatic α1A-, α1B-, and α1C-subtypes. Biochem Biophys Res Commun. 186:760-7676 1992]. […] Prazosin is used as positive control.

T2 sequence (P14416 1-414 isoform P14416-2): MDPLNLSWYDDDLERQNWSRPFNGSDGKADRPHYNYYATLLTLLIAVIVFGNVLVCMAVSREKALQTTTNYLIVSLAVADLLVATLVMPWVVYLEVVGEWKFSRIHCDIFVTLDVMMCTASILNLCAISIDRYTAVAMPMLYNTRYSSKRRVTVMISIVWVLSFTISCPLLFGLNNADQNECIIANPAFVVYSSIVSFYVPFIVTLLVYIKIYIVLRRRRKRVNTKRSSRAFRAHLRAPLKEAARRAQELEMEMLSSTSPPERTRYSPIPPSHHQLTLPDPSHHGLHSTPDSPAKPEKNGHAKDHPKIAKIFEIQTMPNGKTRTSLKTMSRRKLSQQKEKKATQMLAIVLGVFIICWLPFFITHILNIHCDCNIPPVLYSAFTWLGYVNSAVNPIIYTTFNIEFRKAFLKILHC

Regarding `Cc1ccc2c(c1)c1c(n2CCc2ccccc2)CCN(C)C1` [1.1.2(1-2), 2,8-dimethyl-5-phenethyl-1,2,3,4-tetrahydro-1H-pyrido[4,3-b]indole], in assay [1], the “memory disorders caused by Scopolamine in Morris water maze” value was “decreasing memory disorders coused by Scopalomine”. The “enhancement of memory disturbed by Scopolamine (passive avoidance)” value in assay [2] is “improve memory”.
With `Cc1ccc2c(c1)c1c(n2CCc2ccc(C)nc2)CCN(C)C1.Cl.Cl` [1.1.2(4-2)•2HCl], in assay [3], the IC50 was found to be 4.28 nM, the Ki came out at 1.6 nM and the “nH H1” value is 1.01. Besides, in [4], the IC50 was 1750 nM and the “nH D2S” value was found to be 0.724. Moreover, the 50% inhibitory concentration (IC50) in assay [5] is 4410 nM. In assay [6], the IC50 amounted to 286 nM, affinity was put at a Ki of 107 nM and the “nH α2A” value was 0.828. Besides, in assay [7], the IC50 turned out to be 136 nM; the affinity, expressed as Ki, was 55 nM; the “nH α1A” value worked out at 1.12. For the same molecule, in [8], the half-maximal inhibitory concentration (IC50) is 239 nM and the inhibition constant Ki is 118 nM. The “imidazoline I2 receptor % inhibition” value in assay [9] amounted to 98%. In assay [10], the IC50 is 87 nM, the inhibition constant (Ki) amounted to 48 nM and the “nH α1B” value is 1.54.
In the case of `Cc1ccc2c(c1)c1c(n2CCc2ccncc2)CCCN(C)C1.Cl.Cl` [1.2.2(5-3)•2HCl], in [1], the “memory disorders caused by Scopolamine in Morris water maze” value is “decreasing memory disorders coused by Scopalomine”.

What is called IC50 is the concentration that inhibits the measured activity by half. A higher IC50 goes with weaker potency in that assay. A word on the Ki: it is a measure of affinity in units of concentration, obtained from inhibition or displacement. The low end stands for higher affinity, the high end for lower affinity.
